Assay results as given in ChEMBL document CHEMBL5385934, “Identification of two novel chemical classes of Autotaxin (ATX) inhibitors using Enalos Asclepios KNIME nodes” (Bioorg Med Chem Lett, 2024).
Activity calls are given as the source filed them. No cut-off for these calls is given here.

Legend:
Autotaxin [1] = target: T1, Autotaxin (Homo sapiens, UniProt Q13822); experiment: Inhibition of human ATX at 100 uM by Amplex Red assay relative to control
Autotaxin [2] = target: T1, Autotaxin; experiment: Inhibition of human ATX by Amplex Red assay
Autotaxin [3] = target: T1, Autotaxin; experiment: Inhibition of human ATX assessed as decrease in LPC hydrolysis by Amplex Red assay
Autotaxin [4] = target: T1, Autotaxin; experiment: Inhibition of human ATX assessed as decrease in LPC hydrolysis upto 2.5 uM by Amplex Red assay

Row | inhibition (Autotaxin [1]) | IC50 (Autotaxin [2]) | inhibition (Autotaxin [3]) | inhibition (Autotaxin [4]) | SMILES
1 | 87% | 9.41 µM | Active | Active | O=C(CSc1nnc(-c2ccco2)o1)N1c2ccccc2Sc2ccc(Cl)cc21
2 | 85% | 2.53 µM | Active | Active | Cc1nc(Nc2cccc(C3CCCN3C(=O)c3n[nH]c4c3CCCC4)n2)sc1C (stereo not drawn)
